Experimental data reported in patent US20170008928A1, “NOVEL PEPTIDES AND PEPTIDE DERIVATIVES AND USES THEREOF” (Novo Nordisk A/S, priority 2015, published 2017).
Read-outs that look alike come from different tables or passages of the source. Starred links: 1 amine or outer side, 2 acyl side, 3 side chain; linkers in the order of their positions; H or OH if unused. Non-standard residues stand in square brackets, D forms with d. Residues, ends and D or L forms follow the SMILES beside them. *: point of attachment. Phe(4-CH2SO3H) = N[C@@H](Cc1ccc(CS(=O)(=O)O)cc1)C(=O)O; sY = N[C@@H](Cc1ccc(OS(=O)(=O)O)cc1)C(=O)O; C18 diacid = O=C(O)CCCCCCCCCCCCCCCCC(=O)*; d(βAsp) = O=C(O)[C@@H](CC(=O)[*:2])N[*:1]; γGlu = O=C(O)[C@H](CCC(=O)[*:2])N[*:1]; 2Nal = N[C@@H](Cc1ccc2ccccc2c1)C(=O)O; NMeF = CN[C@@H](Cc1ccccc1)C(=O)O; dNMeD = CN[C@H](CC(=O)O)C(=O)O; Nle = CCCC[C@H](N)C(=O)O; AEEA = NCCOCCOCC(=O)O

Tests used:
[1] = biological target: T1, human cholecystokinin-2 receptor (CCK-2R) (Homo sapiens, UniProt P32239); experiment: In vitro receptor binding to CCK-2R, SPA displacement of [125I]-CCK-8s from plasma membranes
T1 construct: host or cells: 1321-N1 cells (plasma membranes prepared by Evotec AG Hamburg)
T1 sequence (P32239 1-447): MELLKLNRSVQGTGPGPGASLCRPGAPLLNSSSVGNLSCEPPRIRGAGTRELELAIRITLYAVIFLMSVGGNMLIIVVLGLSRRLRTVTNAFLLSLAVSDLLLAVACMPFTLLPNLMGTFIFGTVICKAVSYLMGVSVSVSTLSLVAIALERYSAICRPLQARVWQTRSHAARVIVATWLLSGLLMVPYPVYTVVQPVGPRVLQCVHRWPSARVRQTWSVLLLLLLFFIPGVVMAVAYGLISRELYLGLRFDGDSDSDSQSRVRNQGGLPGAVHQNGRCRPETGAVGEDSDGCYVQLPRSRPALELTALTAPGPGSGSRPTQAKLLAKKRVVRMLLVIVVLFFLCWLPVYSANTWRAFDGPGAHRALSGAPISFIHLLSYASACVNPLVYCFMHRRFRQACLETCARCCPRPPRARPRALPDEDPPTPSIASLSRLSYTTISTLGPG
Description: (§1) The in vitro binding affinity is a measure of the strength of attraction between a receptor and its ligand.
(§2) Displacement of radio ligand was measured as reduction in light emission from SPA beads.
(§3) The cells used in these assays were 1321-N1 cells stably expressing the CCK-1R or the CCK-2R (Perkin Elmer product numbers ES-530-A and ES-531-A, respectively see www.perkinelmer.com/Catalog/Product/ID/ES-530-A or -ES-531-A, respectively).
(§4) The cells were cultured in an incubator (95% RH (relative humidity), 5% (of standard atmospheric pressure) CO2, 37° C.) in cell culture medium (DMEM (Lonza catalogue BE-12-604F/U1), with 10% (v/v) Foetal Calf Serum (FCS, Gibco catalogue 16140-071), 1% (w/w) Sodium pyruvate (Gibco catalogue 11360-039), 500 μg/ml Geneticin® (G418) (Gibco catalogue 10131-027), 25 μg/ml Zeocin™ (Invitrogen catalogue R250-05), 1% (w/w) Pen/Strep (Gibco catalogue 15140-122)).
(§5) Plasma membranes were prepared by Evotec AG Hamburg by use of the ParrBomb (#4635, Parr Instrument Company). Cells were lysed with a lysis buffer (50 mM Tris, 2.5 mM EDTA, pH7) with added protease inhibitors (Complete Proteaseinhibitors EDTA-free (#05056489001, Roche), 1 tablet per 50 mL lysis buffer). The membrane fraction was separated by centrifugation. First, the cell lysate was centrifuged at 1000×g for 10 minutes at 4° C. The pellet was discarded and the supernatant was then centrifuged at 100.000×g for 30 minutes at 4° C. The supernatant was discarded and the pellet was re-suspended in 1 ml/5×10^8 cells ice cold membrane buffer (50 mM Tris, 320 mM Sucrose and Complete Proteaseinhibitors EDTA-free (#05056489001, Roche); pH7.4) and homogenised with dounce homogeniser. The protein concentration was determined using the Pierce™ BCA Protein Assay Kit according to kit manual, and the membrane preparation was adjust to the desired protein concentration with membrane buffer and aliquoted into pre-cooled tubes, snap-frozen in liquid nitrogen, and stored at −80° C.
(§6) CCK receptor binding assays were performed in 96-well Optiplates (Cat #6005290, PerkinElmer, Waltham, Mass., USA) in a total volume of 200 μl per well. CCK derivatives in 80% DMSO stock solutions of 800 μM were serially diluted […] in assay buffer (50 mM Tris/HCl, 4.5 mM MgCl2, […], 0.02% Tween 20, 0.25% ovalbumin, 0.1% pluronic F-68, pH 7.4) to final assay concentrations ranging from 10^−5 M (ten μM) to 10^−12 M (one pM).
(§7) Fifty μl of reference or test compounds were added to the Optiplates (using technical duplicates, i.e. two wells of each sample, one data point being the average of two wells), followed by addition of 150 μl of the mixture of SPA bead, radio ligand, and plasma membrane. The plates were sealed and incubated in the dark at +22° C. for 2 hours on a IKA MTS plate shaker (IKA-Werke D-79219 Staufen) set at 300 rpm and thereafter centrifuged at 1500 rpm for 10 minutes in a Heraeus Multifuge 3s centrifuge. SPA bead light emission was measured in a TopCount NXT (PerkinElmer) for 2 min/well after a delay of 60 min.
(§8) As a measure of compound affinity, calculations were performed in order to determine the half maximal inhibitory concentration (the IC50 value).
(§9) The data from the TopCounter were given as counts per minute (CPM). The CPM was plotted as a function of the concentration of compound. Dose-response curves were obtained, and IC50 values were calculated, by a nonlinear three-parameter logistic equation (log(agonist) vs response) with hillslope=−1, and shared top and bottom using the software programme GraphPad Prism v 6.0 (Graph Pad software, La Jolla, Calif., USA). The highest dose tested was 10^−5 M (1×10^7 pM).
(§10) The preference of a specific compound for the CCK-1 receptor, or the CCK-1R selectivity, may be defined as IC50 (CCK-2R)/IC50 (CCK-1R).
(§11) A minimum of three biological replicates was measured for each test compound on separate assay plates.

[2] = biological target: T1, human cholecystokinin-2 receptor (CCK-2R); experiment: In vitro potency on CCK-2R, whole cell functional assay (IP1 accumulation, IP-One HTRF); assay type: cell-based
[3] = biological target: T2, human cholecystokinin-1 receptor (CCK-1R) (Homo sapiens, UniProt P32238); experiment: In vitro receptor binding to CCK-1R, SPA displacement of [125I]-CCK-8s from plasma membranes
T2 construct: host or cells: 1321-N1 cells
T2 sequence (P32238 1-428): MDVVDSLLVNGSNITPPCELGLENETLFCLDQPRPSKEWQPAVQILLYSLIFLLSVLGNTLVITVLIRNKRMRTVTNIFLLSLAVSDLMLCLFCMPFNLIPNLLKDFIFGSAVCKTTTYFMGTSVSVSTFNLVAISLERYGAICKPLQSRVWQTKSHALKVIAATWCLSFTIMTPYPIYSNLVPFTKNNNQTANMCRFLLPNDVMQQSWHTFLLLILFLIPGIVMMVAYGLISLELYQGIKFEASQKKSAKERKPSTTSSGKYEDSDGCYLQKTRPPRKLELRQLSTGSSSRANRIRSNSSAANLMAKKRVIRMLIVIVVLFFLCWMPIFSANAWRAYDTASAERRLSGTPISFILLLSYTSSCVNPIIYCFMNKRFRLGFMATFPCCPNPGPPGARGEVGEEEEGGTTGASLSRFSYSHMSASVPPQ
Description: as §1, §2, §3, §4, §5, §6, §7, §8, §9, §10, §11

[4] = displacement of [125I]-CCK-8s, plasma membranes of 1321-N1 cells expressing CCK-1R, read-out: IC50 (CCK-1R)
[5] = displacement of [125I]-CCK-8s, plasma membranes of 1321-N1 cells expressing CCK-2R, highest dose tested 1×10^7 pM, read-out: IC50 (CCK-2R)

Compound | IC50 [1] [nM] | IC50 [3] [nM] | IC50 [3, 4] [nM] | IC50 [1, 5] [nM] | other results
CC(C)C[C@H](NC(=O)[C@H](Cc1ccc(OS(=O)(=O)O)cc1)NC(=O)[C@H](CC(=O)O)NC(=O)COCCOCCNC(=O)COCCOCCNC(=O)CC[C@H](NC(=O)CCCCCCCCCCCCCCCCC(=O)O)C(=O)O)C(=O)NCC(=O)N[C@@H](Cc1c[nH]c2ccccc12)C(=O)N[C@@H](CCC(N)=O)C(=O)N(C)[C@H](CC(=O)O)C(=O)N(C)[C@@H](Cc1ccccc1)C(N)=O [Example 11, 2-[2-[2-[[2-[2-[2-[[(4S)-4-Carboxy-4-(17-carboxyheptadecanoylamino)butanoyl]amino]ethoxy]ethoxy]acetyl]amino]ethoxy]ethoxy]acetyl-Asp-sTyr-Leu-Gly-Trp-Gln-DMeAsp-MePhe-amide] ({C18 diacid-γGlu-AEEA-AEEA}-D[sY]LGWQ[dNMeD][NMeF]-NH2) | > 10000 | 0.084 | – | – | EC50 [2]: > 1000 nM
CCCC[C@H](NC(=O)[C@H](Cc1c[nH]c2ccccc12)NC(=O)CNC(=O)[C@H](CC(C)C)NC(=O)[C@H](Cc1ccc(OS(=O)(=O)O)cc1)NC(=O)[C@H](CC(=O)O)NC(=O)COCCOCCNC(=O)COCCOCCNC(=O)CC[C@H](NC(=O)CCCCCCCCCCCCCCCCC(=O)O)C(=O)O)C(=O)N(C)[C@H](CC(=O)O)C(=O)N[C@@H](Cc1ccc2ccccc2c1)C(N)=O [Example 50, 2-[2-[2-[[2-[2-[2-[[(4S)-4-Carboxy-4-(17-carboxyheptadecanoylamino)butanoyl]amino]ethoxy]ethoxy]acetyl]amino]ethoxy]ethoxy]acetyl-Asp-sTyr-Leu-Gly-Trp-Nle-DMeAsp-2Nal-amide] ({C18 diacid-γGlu-AEEA-AEEA}-D[sY]LGW[Nle][dNMeD][2Nal]-NH2) | – | – | 0.14 | – | –
CCCC[C@H](NC(=O)[C@H](Cc1ccc(CS(=O)(=O)O)cc1)NC(=O)C[C@@H](NC(=O)COCCOCCNC(=O)COCCOCCNC(=O)CC[C@H](NC(=O)CCCCCCCCCCCCCCCCC(=O)O)C(=O)O)C(=O)O)C(=O)NCC(=O)N[C@@H](Cc1c[nH]c2ccccc12)C(=O)N[C@@H](CCCC)C(=O)N(C)[C@H](CC(=O)O)C(=O)N(C)[C@@H](Cc1ccccc1)C(N)=O [Example 27, 2-[2-[2-[[2-[2-[2-[[(4S)-4-Carboxy-4-(17-carboxyheptadecanoylamino)butanoyl]amino]ethoxy]ethoxy]acetyl]amino]ethoxy]ethoxy]acetyl-DbAsp-Phe(4-sulfomethyl)-Nle-Gly-Trp-Nle-DMeAsp-MePhe-amide] ({C18 diacid-γGlu-AEEA-AEEA-d(βAsp)}-[Phe(4-CH2SO3H)][Nle]GW[Nle][dNMeD][NMeF]-NH2) | – | – | 0.13 | > 10000 | EC50 ([2]; 1321-N1 cells stably expressing CCK-2R, IP1 accumulation, highest dose tested 1×10^6 pM, read-out: EC50 (CCK-2R)): > 1000 nM
CC[C@H](C)[C@H](NC(=O)[C@H](Cc1c[nH]c2ccccc12)NC(=O)CNC(=O)[C@H](CC(C)C)NC(=O)[C@H](Cc1ccc(OS(=O)(=O)O)cc1)NC(=O)[C@H](CC(=O)O)NC(=O)COCCOCCNC(=O)COCCOCCNC(=O)CC[C@H](NC(=O)CCCCCCCCCCCCCCCCC(=O)O)C(=O)O)C(=O)N(C)[C@H](CC(=O)O)C(=O)N(C)[C@@H](Cc1ccccc1)C(N)=O [Example 10, 2-[2-[2-[[2-[2-[2-[[(4S)-4-Carboxy-4-(17-carboxyheptadecanoylamino)butanoyl]amino]ethoxy]ethoxy]acetyl]amino]ethoxy]ethoxy]acetyl-Asp-sTyr-Leu-Gly-Trp-Ile-DMeAsp-MePhe-amide] ({C18 diacid-γGlu-AEEA-AEEA}-D[sY]LGWI[dNMeD][NMeF]-NH2) | 2300 | 0.1 | – | – | –
CCCC[C@H](NC(=O)[C@H](Cc1c[nH]c2ccccc12)NC(=O)CNC(=O)[C@H](CC(C)C)NC(=O)[C@H](Cc1ccc(OS(=O)(=O)O)cc1)NC(=O)[C@H](CC(=O)O)NC(=O)COCCOCCNC(=O)COCCOCCNC(=O)CC[C@H](NC(=O)CC[C@H](NC(=O)CCCCCCCCCCCCCCCCC(=O)O)C(=O)O)C(=O)O)C(=O)N(C)[C@H](CC(=O)O)C(=O)N(C)[C@@H](Cc1ccccc1)C(N)=O [Example 28, 2-[2-[2-[[2-[2-[2-[[(4S)-4-Carboxy-4-[[(4S)-4-carboxy-4-(17-carboxyheptadecanoylamino)butanoyl]amino]butanoyl]amino]ethoxy]ethoxy]acetyl]amino]ethoxy]ethoxy]acetyl-Asp-sTyr-Leu-Gly-Trp-Nle-DMeAsp-MePhe-amide] | – | – | 0.1 | – | –
CCCC[C@H](NC(=O)[C@H](Cc1c[nH]c2ccccc12)NC(=O)CNC(=O)[C@H](CC(C)C)NC(=O)[C@H](Cc1ccc(OS(=O)(=O)O)cc1)NC(=O)[C@H](CCC(=O)O)NC(=O)COCCOCCNC(=O)COCCOCCNC(=O)CC[C@H](NC(=O)CCCCCCCCCCCCCCCCC(=O)O)C(=O)O)C(=O)N(C)[C@H](CC(=O)O)C(=O)N[C@@H](Cc1ccccc1)C(N)=O [Example 52, 2-[2-[2-[[2-[2-[2-[[(4S)-4-Carboxy-4-(17-carboxyheptadecanoylamino)butanoyl]amino]ethoxy]ethoxy]acetyl]amino]ethoxy]ethoxy]acetyl-Glu-sTyr-Leu-Gly-Trp-Nle-DMeAsp-Phe-amide] ({C18 diacid-γGlu-AEEA-AEEA}-E[sY]LGW[Nle][dNMeD]F-NH2) | – | – | 0.049 | 480 | –
